Laboratory results published in paper PMC7531004, “Discovery of gramicidin A analogues with altered activities by multidimensional screening of a one-bead-one-compound library” (Nature Communications, 2020).
Where a SMILES comes first, the peptide text is derived from it. [ ]: non-standard residue; d: D form. The star is where a group is joined. NHCH2CH2OH = OCCN*; For = O=C*

Legend:
[1] = tested on: P388 mouse leukemia cells; details: 92 h
Outline: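 First, library peptide stocks are diluted 250-fold in RPMI1640 with 10% heat-inactivated FBS. Next, they are mixed with P388 cells to give 1 × 10^4 cells/mL and incubated 92 h at 37 °C, 5% CO2. Finally, viability (%) is scored by WST-1 absorbance at 415 nm.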

[2] = H+/Na+ transport assay of bead-derived peptides (one-point); format: biochemical; parameters: key: relative activity; mean of two control wells = 1.00; details: bead-derived peptide solution, EYPC/EYPG LUVs;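 note: relative to parent gramicidin A activity set to 1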
Outline: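 H+/Na+ transport is monitored through pyranine fluorescence in freshly extruded LUVs after a 30-min room-temperature vortex with each library peptide at a single concentration. Signals are normalized to detergent (Triton X-100) and untreated controls.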

[3] = tested on: Streptococcus pyogenes SSI-9; test: Antibacterial activity assay of bead-derived peptides (three concentrations); format: cell-based; parameters: key: +++: inhibition by the 640-fold diluted peptide solution; ++: inhibition by the 160-fold diluted solution; +: inhibition by the 40-fold diluted solution; -: no inhibition; details: S. pyogenes, bead-derived peptide solution, three concentrations
Outline: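 Bead-derived library peptide stocks in DMSO were tested undiluted and after 4- and 16-fold DMSO dilution against S. pyogenes SSI-9 (2 × 10^5 CFU/well) in cation-adjusted Mueller Hinton Broth with 5% laked horse blood. After 18 h at 37 °C, wells were scored for precipitation of grown cells.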

Row | Compound | cell viability/% [1] [%] | H+/Na+ transport activity normalized against the value of 1 (1.00) [2] | antibacterial activity [3]
1 | CC(C)C[C@@H](NC(=O)[C@H](Cc1c[nH]c2ccccc12)NC(=O)[C@H](NC(=O)[C@H](Cc1c[nH]c2ccccc12)NC(=O)[C@H](NC(=O)[C@H](Cc1c[nH]c2ccccc12)NC(=O)[C@@H](CC(C)C)NC(=O)[C@@H](NC(=O)[C@H](NC(=O)[C@H](C)NC(=O)[C@H](NC(=O)[C@H](C)NC(=O)CNC(=O)[C@@H](NC=O)C(C)C)C(C)C)C(C)C)C(C)C)C(C)C)[C@H](C)O)C(=O)N[C@@H](Cc1c[nH]c2ccccc12)C(=O)NCCO [compound 8633] (For-VGA[dV]A[dV]V[dL]W[dV]W[dT]W[dL]W-NHCH2CH2OH) | 61.8 | 1.00 | -
2 | CC(C)C[C@@H](NC(=O)[C@H](C)NC(=O)CNC(=O)[C@@H](NC=O)C(C)C)C(=O)N[C@@H](C)C(=O)N[C@H](CC(C)C)C(=O)N[C@H](C(=O)N[C@H](CC(C)C)C(=O)N[C@@H](Cc1c[nH]c2ccccc12)C(=O)N[C@H](CC(C)C)C(=O)N[C@@H](Cc1c[nH]c2ccccc12)C(=O)N[C@H](CC(C)C)C(=O)N[C@@H](Cc1c[nH]c2ccccc12)C(=O)N[C@@H](C(=O)N[C@@H](Cc1c[nH]c2ccccc12)C(=O)NCCO)C(C)C)C(C)C [compound 8635] (For-VGA[dL]A[dL]V[dL]W[dL]W[dL]W[dV]W-NHCH2CH2OH) | 6.4 | 1.05 | +
3 | CNC(=O)C[C@@H](NC(=O)[C@@H](NC(=O)[C@@H](CC(C)C)NC(=O)[C@H](C)NC(=O)[C@H](NC(=O)[C@H](C)NC(=O)CNC(=O)[C@@H](NC=O)C(C)C)C(C)C)C(C)C)C(=O)N[C@@H](Cc1c[nH]c2ccccc12)C(=O)N[C@@H](C(=O)N[C@@H](Cc1c[nH]c2ccccc12)C(=O)N[C@@H](C(=O)N[C@@H](Cc1c[nH]c2ccccc12)C(=O)N[C@@H](C(=O)N[C@@H](Cc1c[nH]c2ccccc12)C(=O)NCCO)C(C)C)C(C)C)C(C)C [compound 8662] (For-VGA[dV]A[dL]V[dD](NHMe)W[dV]W[dV]W[dV]W-NHCH2CH2OH) | 61.0 | 1.08 | -
4 | CC(C)C[C@@H](NC(=O)[C@H](C)NC(=O)[C@H](NC(=O)[C@H](C)NC(=O)CNC(=O)[C@@H](NC=O)C(C)C)[C@H](C)O)C(=O)N[C@H](C(=O)N[C@@H](C(=O)N[C@@H](Cc1c[nH]c2ccccc12)C(=O)N[C@@H](C(=O)N[C@@H](Cc1c[nH]c2ccccc12)C(=O)N[C@H](CC(C)C)C(=O)N[C@@H](Cc1c[nH]c2ccccc12)C(=O)N[C@@H](C(=O)N[C@@H](Cc1c[nH]c2ccccc12)C(=O)NCCO)C(C)C)C(C)C)C(C)C)C(C)C [compound 8687] (For-VGA[dT]A[dL]V[dV]W[dV]W[dL]W[dV]W-NHCH2CH2OH) | 66.9 | 1.15 | -
5 | CC(C)C[C@@H](NC(=O)[C@H](C)NC(=O)[C@H](NC(=O)[C@H](C)NC(=O)CNC(=O)[C@@H](NC=O)C(C)C)C(C)C)C(=O)N[C@H](C(=O)N[C@@H](C(=O)N[C@@H](Cc1c[nH]c2ccccc12)C(=O)N[C@H](CC(C)C)C(=O)N[C@@H](Cc1c[nH]c2ccccc12)C(=O)N[C@@H](C(=O)N[C@@H](Cc1c[nH]c2ccccc12)C(=O)N[C@@H](C(=O)N[C@@H](Cc1c[nH]c2ccccc12)C(=O)NCCO)C(C)C)C(C)C)C(C)C)C(C)C [compound 8697] (For-VGA[dV]A[dL]V[dV]W[dL]W[dV]W[dV]W-NHCH2CH2OH) | 100.0 | 1.04 | +
6 | CC(C)C[C@@H](NC(=O)[C@H](C)NC(=O)CNC(=O)[C@@H](NC=O)C(C)C)C(=O)N[C@@H](C)C(=O)N[C@H](CC(C)C)C(=O)N[C@H](C(=O)N[C@H](CC(C)C)C(=O)N[C@@H](Cc1c[nH]c2ccccc12)C(=O)N[C@@H](C(=O)N[C@@H](Cc1c[nH]c2ccccc12)C(=O)N[C@@H](C(=O)N[C@@H](Cc1c[nH]c2ccccc12)C(=O)N[C@@H](C(=O)N[C@@H](Cc1c[nH]c2ccccc12)C(=O)NCCO)C(C)C)[C@H](C)O)C(C)C)C(C)C [compound 8722] (For-VGA[dL]A[dL]V[dL]W[dV]W[dT]W[dV]W-NHCH2CH2OH) | 70.8 | 1.09 | -
7 | CC(C)C[C@@H](NC(=O)[C@H](C)NC(=O)[C@H](NC(=O)[C@H](C)NC(=O)CNC(=O)[C@@H](NC=O)C(C)C)C(C)C)C(=O)N[C@H](C(=O)N[C@@H](C(=O)N[C@@H](Cc1c[nH]c2ccccc12)C(=O)N[C@@H](C(=O)N[C@@H](Cc1c[nH]c2ccccc12)C(=O)N[C@H](CC(C)C)C(=O)N[C@@H](Cc1c[nH]c2ccccc12)C(=O)N[C@@H](C(=O)N[C@@H](Cc1c[nH]c2ccccc12)C(=O)NCCO)[C@H](C)O)C(C)C)C(C)C)C(C)C [compound 8731] (For-VGA[dV]A[dL]V[dV]W[dV]W[dL]W[dT]W-NHCH2CH2OH) | 71.2 | 1.05 | -
8 | CNC(=O)C[C@@H](NC(=O)[C@@H](NC(=O)[C@H](NC(=O)[C@H](C)NC(=O)[C@@H](CC(C)C)NC(=O)[C@H](C)NC(=O)CNC(=O)[C@@H](NC=O)C(C)C)C(C)C)C(C)C)C(=O)N[C@@H](Cc1c[nH]c2ccccc12)C(=O)N[C@@H](C(=O)N[C@@H](Cc1c[nH]c2ccccc12)C(=O)N[C@H](CC(C)C)C(=O)N[C@@H](Cc1c[nH]c2ccccc12)C(=O)N[C@@H](C(=O)N[C@@H](Cc1c[nH]c2ccccc12)C(=O)NCCO)C(C)C)C(C)C [compound 8732] (For-VGA[dL]A[dV]V[dD](NHMe)W[dV]W[dL]W[dV]W-NHCH2CH2OH) | 72.4 | 1.11 | -
9 | CC(C)C[C@@H](NC(=O)[C@H](C)NC(=O)CNC(=O)[C@@H](NC=O)C(C)C)C(=O)N[C@@H](C)C(=O)N[C@H](CC(C)C)C(=O)N[C@H](C(=O)N[C@@H](C(=O)N[C@@H](Cc1c[nH]c2ccccc12)C(=O)N[C@@H](C(=O)N[C@@H](Cc1c[nH]c2ccccc12)C(=O)N[C@@H](C(=O)N[C@@H](Cc1c[nH]c2ccccc12)C(=O)N[C@@H](C(=O)N[C@@H](Cc1c[nH]c2ccccc12)C(=O)NCCO)C(C)C)[C@H](C)O)C(C)C)C(C)C)C(C)C [compound 8749] (For-VGA[dL]A[dL]V[dV]W[dV]W[dT]W[dV]W-NHCH2CH2OH) | 62.2 | 1.05 | -
10 | CC(C)C[C@@H](NC(=O)[C@H](C)NC(=O)[C@H](NC(=O)[C@H](C)NC(=O)CNC(=O)[C@@H](NC=O)C(C)C)C(C)C)C(=O)N[C@H](C(=O)N[C@@H](C(=O)N[C@@H](Cc1c[nH]c2ccccc12)C(=O)N[C@H](CC(C)C)C(=O)N[C@@H](Cc1c[nH]c2ccccc12)C(=O)N[C@@H](C(=O)N[C@@H](Cc1c[nH]c2ccccc12)C(=O)N[C@@H](C(=O)N[C@@H](Cc1c[nH]c2ccccc12)C(=O)NCCO)C(C)C)C(C)C)[C@H](C)O)C(C)C [compound 8779] (For-VGA[dV]A[dL]V[dT]W[dL]W[dV]W[dV]W-NHCH2CH2OH) | 40.6 | 1.07 | -
